The text below walks through data of PMC8725448 (Journal of Cannabis Research, 2022).

The subject of data set [1] is hyperthermia-induced seizures in Scn1a^+/- mice. As to the kind of experiment: Hyperthermia-induced seizures in Scn1a+/- mouse model of Dravet syndrome. The class given is in vivo. As for the experimental part: (§1) Hyperthermia-induced seizure experiments were conducted on male and female Scn1a^+/- mice at P14-16 as previously described (Hawkins et al. [2017]). No significant sex differences were observed so males and females were combined across groups. Briefly, for CBGA methyl ester experimental animals a RET-3 rectal temperature probe was inserted 30 min after i.p. injections of vehicle or CBGA methyl ester. Mice acclimated to the probe for 5 min before hyperthermia protocol began. Olivetolic acid experimental animals acclimated to the rectal temperature probe for 5 min then received an i.p. injection of vehicle or olivetolic acid immediately before the hyperthermia protocol was initiated. Mouse core body temperature was elevated 0.5°C every 2 min until the onset of first clonic convulsion with loss of posture or until 42.5°C was reached. The dose range (10, 30, or 100 mg/kg) was chosen to provide a point of direct comparison to CBGA, which is anticonvulsant at 30 and 100 mg/kg. Seizure threshold temperatures were compared in GraphPad Prism 8.2 (LaJolla, USA) using Mantel-Cox logrank test and p < 0.05 was considered statistically significant. Following the hyperthermia-induced seizure protocol, the plasma samples were isolated as described for the pharmacokinetic analysis from a cohort of experimental mice.

In the next data set the target is T1, human GPR55 (Homo sapiens, UniProt Q9Y2T6).
T1 construct: expressed in transfected cells; host or cells: HEK293
As to the kind of experiment: GPR55 pERK assay (AlphaScreen SureFire Phospho-ERK1/2). The class given is cell-based. The settings on record: 10 μM; LPI at EC80; HEK293 cells expressing human GPR55. As for the experimental part:
ERK phosphorylation (pERK) was detected using the AlphaScreen® SureFire® Phospho-ERK1/2 assay (Perkin Elmer; Waltham, USA) as previously described (Anderson et al. [2021b]). Briefly, the human embryonic kidney (HEK) 293 cells stably expressing human GPR55 in L-15 media were plated (110,000/well) into a Corning CellBIND (Corning Inc; Corning, USA) clear, flat-bottomed 96-well plate and incubated 20–24 h at 37°C in ambient CO2. Media was aspirated, 50 μL phenol red-free DMEM/F-12 was added to each well and incubated for 2–3 h at 37°C in a humidified 5% CO2 atmosphere. Compounds (10 μM in phenol red-free DMEM/F-12) were added and incubated for 20 min before media was aspirated and lysis buffer was added. Lysates (5 μL) were incubated with reaction mixture (7 μL) for 3.5 h at room temperature. A CLARIOstar plate reader (BMG Labtech; Offenburg, GER) was used to take fluorescence readings over 740 msec (excitation 680 nm, emission 520–620 nm). Fluorescence readings were normalized to those of 4 μM LPI, the endogenous GPR55 agonist. […] Final DMSO concentrations were ≤ 0.2%. Statistical comparisons were made in GraphPad Prism using one-way ANOVA followed by Dunnett’s post hoc and p < 0.05 was considered statistically significant.
On the technique in general: In Alpha technology, singlet oxygen from a donor bead excites a nearby acceptor bead.

Data set [2] in a line: Plasma concentrations in experimental Scn1a+/- mice after hyperthermia protocol. The class given is in vivo, mouse. As for the experimental part: The plasma and brain samples were prepared for LC-MS/MS analysis as previously described (Anderson et al. [2019b], [2020]). Briefly, acetonitrile was used to precipitate proteins and extract CBGA methyl ester and olivetolic acid from the biological matrices. The brain samples were additionally filtered through Amicon Ultracel 3K (Merck-Millipore; Burlington, USA) filtration devices. The plasma and brain samples underwent supported-liquid extraction with methyl tert-butyl ether using Biotage Isolute SLE+ columns (Uppsala, SWE) and were then evaporated to dryness with N2. Residues were reconstituted in actetonitrile and 0.1% formic acid in water (1:1, v/v) for analysis using a Shimadzu Nexera ultra-HPLC coupled to a Shimadzu 8030 triple quadrupole mass spectrometer (Shimadzu Corp.; Kyoto, JPN). The mass spectrometer was operated in positive electrospray ionization mode for CBGA methyl ester and negative electrospray ionization mode for olivetolic acid with multiple reaction monitoring and the following mass transition pairs (m/z): 375.20 > 343.25, 375.20 > 219.10 and 375.20 > 251.15 (CBGA-methylester) and 223.25 > 179.25 (olivetolic acid). Quantification of analytes in the plasma and brain samples was achieved by comparing samples to standards prepared with known amounts of compound.
as §1

“Also recorded” adds a separate entry of the source.

T1 sequence (Q9Y2T6 whole entry): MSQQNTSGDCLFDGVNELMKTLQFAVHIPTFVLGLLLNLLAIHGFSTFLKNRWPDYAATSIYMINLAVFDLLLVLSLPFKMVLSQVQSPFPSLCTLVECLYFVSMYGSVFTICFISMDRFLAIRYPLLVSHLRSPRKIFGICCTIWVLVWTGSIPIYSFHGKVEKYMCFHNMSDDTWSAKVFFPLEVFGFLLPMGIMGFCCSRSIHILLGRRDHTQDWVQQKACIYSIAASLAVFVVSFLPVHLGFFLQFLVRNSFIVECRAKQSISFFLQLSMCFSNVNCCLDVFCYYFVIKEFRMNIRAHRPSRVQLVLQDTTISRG

For `CCCCCc1cc(O)c(C/C=C(\C)CCC=C(C)C)c(O)c1C(=O)OC` [CBGA methyl ester], the “effect on hyperthermia-induced seizures” value in data set [1] (any dose tested (10, 30, 100 mg/kg i.p.), Scn1a+/- mice P14-16) is recorded as “no effect; also recorded: ineffective”. For the same molecule, at human GPR55, the “inhibition of GPR55 activity (pERK relative to agonist LPI alone)” value was “did not inhibit; also recorded: no effect”. In addition, the Plasma concentration is 837 ± 212 ng/mL in data set [2] (dose 10 mg/kg i.p.), 4700 ± 600 ng/mL in data set [2] (dose 30 mg/kg i.p.) and 6200 ± 600 ng/mL in data set [2] (dose 100 mg/kg i.p.).

Regarding `CCCCCc1cc(O)cc(O)c1C(=O)O` [Olivetolic acid], in data set [1] (100 mg/kg i.p., Scn1a+/- mice), the “increase of GTCS temperature threshold” value is “approximately 0.4 °C”. Besides, in data set [1] (100 mg/kg i.p., Scn1a+/- mice P14-16), the “anticonvulsant effect (GTCS temperature threshold)” value is on record as “modest but significant anticonvulsant effect; also recorded: significantly increased the temperature threshold for GTCS”. Also, the “inhibition of GPR55 activity (pERK relative to agonist LPI alone)” value at human GPR55 is reported as “did not inhibit; also recorded: ineffective”. The Plasma concentration is 65000 ± 5000 ng/mL in data set [2] (dose 10 mg/kg i.p.), 89000 ± 12000 ng/mL in data set [2] (dose 30 mg/kg i.p.) and 116000 ± 27000 ng/mL in data set [2] (dose 100 mg/kg i.p.).
